Active and inactive are the calls of the source.
Tests used:
[1] = NIH-3T3 fibroblast cytotoxicity, dose response, cytotoxicity control, cell-based, fluorescence, Alamar Blue, secondary assay (AID 2327); format: functional;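 note: NIH-3T3 mouse fibroblasts cultured with fluconazole at 8 µg/mL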
Aminopeptidase N = biological target: T1, Aminopeptidase N (Plasmodium falciparum FcB1/Columbia, UniProt O96935); experiment: malaria alanyl aminopeptidase activity blockers – biochemical, fluorogenic H-Leu-NHMec substrate, 1536-well (AID 1445); parameters: species or system Plasmodium falciparum 3D7, 3D7
T1 sequence (O96935 whole entry): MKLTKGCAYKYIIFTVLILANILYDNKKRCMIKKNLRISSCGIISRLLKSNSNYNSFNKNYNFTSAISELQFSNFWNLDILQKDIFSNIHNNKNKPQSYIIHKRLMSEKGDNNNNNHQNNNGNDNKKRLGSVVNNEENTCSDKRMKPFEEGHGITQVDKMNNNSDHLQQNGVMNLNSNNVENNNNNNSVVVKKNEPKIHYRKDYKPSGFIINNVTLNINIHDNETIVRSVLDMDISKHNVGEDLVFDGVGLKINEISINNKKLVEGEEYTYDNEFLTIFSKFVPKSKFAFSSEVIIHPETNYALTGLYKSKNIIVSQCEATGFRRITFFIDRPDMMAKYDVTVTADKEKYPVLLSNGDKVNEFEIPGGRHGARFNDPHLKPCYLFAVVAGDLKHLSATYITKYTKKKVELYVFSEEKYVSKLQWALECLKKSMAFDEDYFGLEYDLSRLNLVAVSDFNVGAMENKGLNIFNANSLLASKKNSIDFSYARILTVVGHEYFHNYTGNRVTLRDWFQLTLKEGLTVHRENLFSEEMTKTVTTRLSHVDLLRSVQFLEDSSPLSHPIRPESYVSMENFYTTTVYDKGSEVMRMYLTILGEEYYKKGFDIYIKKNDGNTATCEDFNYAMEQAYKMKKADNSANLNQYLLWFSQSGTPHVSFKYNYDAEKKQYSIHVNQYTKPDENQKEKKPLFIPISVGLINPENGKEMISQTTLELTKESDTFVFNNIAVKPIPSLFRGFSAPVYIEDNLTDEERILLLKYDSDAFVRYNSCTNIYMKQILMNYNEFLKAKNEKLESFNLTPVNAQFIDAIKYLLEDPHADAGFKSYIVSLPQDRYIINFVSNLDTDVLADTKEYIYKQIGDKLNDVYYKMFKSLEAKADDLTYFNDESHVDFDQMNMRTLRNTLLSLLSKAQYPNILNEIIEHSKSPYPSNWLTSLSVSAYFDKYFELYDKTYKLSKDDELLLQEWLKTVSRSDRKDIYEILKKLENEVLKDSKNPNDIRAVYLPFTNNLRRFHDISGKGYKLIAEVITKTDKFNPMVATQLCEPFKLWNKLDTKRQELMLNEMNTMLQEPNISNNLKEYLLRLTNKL

cells [2] = format: functional, cell-based
[3] = fluconazole-exposed Candida albicans growth modulators – fluorescence, retest, confirmation (AID 2467); format: functional, cell-based
cells [4] = format: functional, cell-based; remark: listed apart in the source
[5] = THP-1 cell cytotoxicity, dose response, cytotoxicity control for non-replicating M. tuberculosis project (AID 489025); format: functional
[6] = HepG2 cell cytotoxicity, dose response, cytotoxicity control for non-replicating M. tuberculosis project (AID 489018); format: functional; conditions: Mycobacterium tuberculosis
[7] = Vero E6 cell cytotoxicity, dose response, cytotoxicity control for non-replicating M. tuberculosis project, secondary assay (AID 492998); format: functional, VeroE6; conditions: Vero C1008
HEK293 = experiment: EBV LMP1 TES2 canonical NF-kB signalling blockers – cell-based, HEK293, luciferase, cherry-pick, dose response (AID 588343); format: functional; conditions: Homo sapiens
[8] = biological target: T2, Polyadenylate-binding protein 1 (Homo sapiens, UniProt P11940); experiment: MLLE binding blockers, Cy5 peptide tracer – biochemical, fluorescence polarization, Cy5-PAM2 peptide, secondary, miRNA deadenylation inhibitor project, dose response (AID 602260); format: functional; conditions: read-out: IC50_Mean
[9] = biological target: T2, Polyadenylate-binding protein 1; experiment: MLLE domain peptide-binding blockers, IC50 – biochemical, fluorescence polarization, FITC-PAM2 peptide, dose response (AID 602259); format: functional; conditions: read-out: IC50_Mean
[10] = biological target: T3, Replicative DNA helicase DnaB (Mycobacterium tuberculosis, UniProt P9WMR3); experiment: DnaB intein splicing inhibitors, dose response, biochemical, cell-free fluorescence (AID 449749); format: functional
T3 sequence (P9WMR3 whole entry): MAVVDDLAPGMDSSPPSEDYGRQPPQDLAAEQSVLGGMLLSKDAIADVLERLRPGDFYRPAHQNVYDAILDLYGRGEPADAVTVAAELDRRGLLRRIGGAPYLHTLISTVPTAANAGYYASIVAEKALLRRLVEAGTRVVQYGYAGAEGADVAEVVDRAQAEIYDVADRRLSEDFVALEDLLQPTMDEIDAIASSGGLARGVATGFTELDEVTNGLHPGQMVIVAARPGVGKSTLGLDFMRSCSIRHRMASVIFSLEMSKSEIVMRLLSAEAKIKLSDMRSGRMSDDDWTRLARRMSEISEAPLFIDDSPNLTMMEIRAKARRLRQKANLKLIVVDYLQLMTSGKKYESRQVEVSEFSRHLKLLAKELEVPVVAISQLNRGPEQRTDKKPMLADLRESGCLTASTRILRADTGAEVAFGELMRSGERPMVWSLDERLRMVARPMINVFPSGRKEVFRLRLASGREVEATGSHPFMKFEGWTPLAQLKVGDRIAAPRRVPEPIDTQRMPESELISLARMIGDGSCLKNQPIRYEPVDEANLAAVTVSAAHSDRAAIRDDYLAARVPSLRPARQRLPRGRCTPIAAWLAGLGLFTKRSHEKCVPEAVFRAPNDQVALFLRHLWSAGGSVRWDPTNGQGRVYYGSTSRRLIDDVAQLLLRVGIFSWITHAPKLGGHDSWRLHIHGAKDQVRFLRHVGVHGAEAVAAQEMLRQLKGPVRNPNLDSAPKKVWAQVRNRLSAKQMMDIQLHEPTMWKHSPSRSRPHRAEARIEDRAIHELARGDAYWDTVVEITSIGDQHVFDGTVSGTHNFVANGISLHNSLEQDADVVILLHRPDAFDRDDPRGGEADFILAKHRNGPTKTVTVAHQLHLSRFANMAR

Protein RecA = biological target: T4, Protein RecA (Mycobacterium tuberculosis, UniProt P9WHJ3); experiment: Fluorescence Cell-Free Homogeneous Dose Retest to Identify Inhibitors of RecA-Intein Splicing Activity. [Related pubchem assays (depositor defined):AID2097, AID2223, AID489010, AID492950]; format: functional
T4 sequence (P9WHJ3 whole entry): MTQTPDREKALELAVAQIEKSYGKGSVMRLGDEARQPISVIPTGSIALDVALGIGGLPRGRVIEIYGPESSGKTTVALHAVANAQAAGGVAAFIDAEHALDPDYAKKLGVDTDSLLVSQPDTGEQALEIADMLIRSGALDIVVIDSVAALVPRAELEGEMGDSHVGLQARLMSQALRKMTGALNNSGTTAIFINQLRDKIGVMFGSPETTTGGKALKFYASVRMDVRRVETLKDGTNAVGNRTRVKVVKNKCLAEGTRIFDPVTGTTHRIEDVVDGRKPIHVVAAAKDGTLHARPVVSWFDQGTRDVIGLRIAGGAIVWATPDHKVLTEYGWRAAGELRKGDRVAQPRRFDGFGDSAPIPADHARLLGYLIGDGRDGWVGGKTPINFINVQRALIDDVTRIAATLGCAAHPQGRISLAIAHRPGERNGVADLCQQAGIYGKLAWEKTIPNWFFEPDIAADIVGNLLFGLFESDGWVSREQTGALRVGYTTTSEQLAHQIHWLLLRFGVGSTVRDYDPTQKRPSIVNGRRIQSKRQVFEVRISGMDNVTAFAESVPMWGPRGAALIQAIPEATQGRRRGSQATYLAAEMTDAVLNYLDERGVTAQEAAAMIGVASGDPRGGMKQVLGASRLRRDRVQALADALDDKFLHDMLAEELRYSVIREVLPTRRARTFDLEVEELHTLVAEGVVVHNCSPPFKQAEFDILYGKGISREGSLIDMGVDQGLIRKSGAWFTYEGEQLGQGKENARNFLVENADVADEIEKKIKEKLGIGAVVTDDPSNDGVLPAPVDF

[11] = luciferase reporter signal suppression in cells – H4 neuroglioma cells, luminescence, dose response (AID 1990); format: functional, cell-based
[12] = Luminescence Cell-Based Dose Response HTS to Identify Inhibitors of 5'UTR Stem-Loop Driven Prion Protein mRNA Translation in H4 Neuroglioblastoma Cells. [Related pubchem assays: 1827 (Project Summary), 1813 (Primary HTS)]; format: functional
[13] = alpha-synuclein stem-loop luciferase translation blockers – H4 neuroglioma cells, luminescence, confirmation (AID 1988); format: functional, cell-based
[14] = biological target: Glucose-6-phosphate 1-dehydrogenase (Homo sapiens, UniProt P11413); experiment: inhibition of Homo sapiens G6PD, dose series – biochemical, fluorescence, selectivity assay for P. falciparum G6PD inhibitor project, dose response (AID 504792); format: functional
[15] = biological target: T5, Microphthalmia-associated transcription factor (Homo sapiens, UniProt O75030); experiment: reducers of TRPM1 reporter luminescence, concentration series – cell-based, SK-MEL-5, cherry-picked, set 3, MITF inhibitor project, dose response (AID 493073); format: functional;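 note: SK-MEL-5 melanoma cells with luciferase driven by the MITF target TRPM1 promoter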
T5 sequence (O75030 whole entry): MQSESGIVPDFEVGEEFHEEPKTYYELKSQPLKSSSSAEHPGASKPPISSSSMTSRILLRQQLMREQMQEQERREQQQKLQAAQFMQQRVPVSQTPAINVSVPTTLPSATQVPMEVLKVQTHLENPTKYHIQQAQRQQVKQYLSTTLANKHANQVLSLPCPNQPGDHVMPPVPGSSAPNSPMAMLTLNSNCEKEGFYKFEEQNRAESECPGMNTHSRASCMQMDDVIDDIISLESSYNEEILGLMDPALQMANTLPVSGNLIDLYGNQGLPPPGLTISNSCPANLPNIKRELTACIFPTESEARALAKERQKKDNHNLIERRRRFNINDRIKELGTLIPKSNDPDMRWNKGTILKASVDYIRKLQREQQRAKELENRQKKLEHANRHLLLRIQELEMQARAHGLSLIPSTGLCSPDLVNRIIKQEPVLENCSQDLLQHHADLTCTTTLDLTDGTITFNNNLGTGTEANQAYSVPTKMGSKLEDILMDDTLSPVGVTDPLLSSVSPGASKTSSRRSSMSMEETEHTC

Large T antigen = Large T antigen (Simian virus 40, UniProt P03070); format: functional, Betapolyomavirus macacae;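 note: Confirmatory-stage PubChem screen for compounds that inhibit SV40 T antigen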
[16] = intracellular Trypanosoma cruzi inhibitors in host cells – cell-based, plate reader, cherry-pick samples, set 3, dose response (AID 651818); format: functional;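 note: compounds incubated with infected cells for about four days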
INS1 = experiment: INS-1E survival protection against cytokine death – cell-based, luminescence, retest, dose response (AID 449756); format: functional; conditions: Rattus norvegicus;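 note: cell death triggered by IL-1 beta plus TNF-alpha plus IFN-gamma mixture; protective hits raise ATP signal compared with cytokine alone wells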

T2 sequence (P11940 whole entry, the tested form may be a part): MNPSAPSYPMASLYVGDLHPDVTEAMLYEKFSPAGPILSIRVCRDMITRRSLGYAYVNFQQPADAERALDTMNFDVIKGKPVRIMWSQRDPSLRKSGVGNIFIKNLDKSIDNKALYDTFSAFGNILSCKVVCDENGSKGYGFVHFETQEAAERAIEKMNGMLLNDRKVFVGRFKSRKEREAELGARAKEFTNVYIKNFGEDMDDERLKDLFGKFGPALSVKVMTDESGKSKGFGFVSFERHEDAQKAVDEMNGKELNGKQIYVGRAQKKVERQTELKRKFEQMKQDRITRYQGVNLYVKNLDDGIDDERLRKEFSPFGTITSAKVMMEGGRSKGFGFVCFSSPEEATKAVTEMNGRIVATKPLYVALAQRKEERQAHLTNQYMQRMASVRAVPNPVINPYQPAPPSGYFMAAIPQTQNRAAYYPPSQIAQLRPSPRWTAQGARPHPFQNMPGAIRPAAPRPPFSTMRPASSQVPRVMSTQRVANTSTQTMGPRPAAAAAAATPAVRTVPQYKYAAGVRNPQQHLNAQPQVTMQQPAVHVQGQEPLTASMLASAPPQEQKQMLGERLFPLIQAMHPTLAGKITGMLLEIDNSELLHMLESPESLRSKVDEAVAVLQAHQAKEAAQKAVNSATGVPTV
Sequence of Large T antigen (P03070 whole entry): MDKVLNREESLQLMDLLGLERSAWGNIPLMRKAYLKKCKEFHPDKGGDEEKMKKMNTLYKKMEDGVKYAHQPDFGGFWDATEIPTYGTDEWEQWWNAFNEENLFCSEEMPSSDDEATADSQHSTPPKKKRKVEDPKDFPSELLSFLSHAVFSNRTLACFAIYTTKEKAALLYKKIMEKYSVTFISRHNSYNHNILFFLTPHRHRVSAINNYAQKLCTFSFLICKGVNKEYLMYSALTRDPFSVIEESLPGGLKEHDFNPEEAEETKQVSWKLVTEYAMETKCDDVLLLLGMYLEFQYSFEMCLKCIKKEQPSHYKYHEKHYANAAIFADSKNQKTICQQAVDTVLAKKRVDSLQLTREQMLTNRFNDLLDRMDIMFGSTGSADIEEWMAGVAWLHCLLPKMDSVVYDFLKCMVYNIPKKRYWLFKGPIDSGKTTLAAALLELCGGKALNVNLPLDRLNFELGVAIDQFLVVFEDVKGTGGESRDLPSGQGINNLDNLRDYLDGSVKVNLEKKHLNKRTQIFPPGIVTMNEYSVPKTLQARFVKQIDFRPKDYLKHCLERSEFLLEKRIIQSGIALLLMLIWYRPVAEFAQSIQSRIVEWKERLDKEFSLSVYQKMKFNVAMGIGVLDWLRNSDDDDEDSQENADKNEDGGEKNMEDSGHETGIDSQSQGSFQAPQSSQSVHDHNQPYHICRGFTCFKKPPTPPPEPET
Sequence of Glucose-6-phosphate 1-dehydrogenase (P11413 whole entry): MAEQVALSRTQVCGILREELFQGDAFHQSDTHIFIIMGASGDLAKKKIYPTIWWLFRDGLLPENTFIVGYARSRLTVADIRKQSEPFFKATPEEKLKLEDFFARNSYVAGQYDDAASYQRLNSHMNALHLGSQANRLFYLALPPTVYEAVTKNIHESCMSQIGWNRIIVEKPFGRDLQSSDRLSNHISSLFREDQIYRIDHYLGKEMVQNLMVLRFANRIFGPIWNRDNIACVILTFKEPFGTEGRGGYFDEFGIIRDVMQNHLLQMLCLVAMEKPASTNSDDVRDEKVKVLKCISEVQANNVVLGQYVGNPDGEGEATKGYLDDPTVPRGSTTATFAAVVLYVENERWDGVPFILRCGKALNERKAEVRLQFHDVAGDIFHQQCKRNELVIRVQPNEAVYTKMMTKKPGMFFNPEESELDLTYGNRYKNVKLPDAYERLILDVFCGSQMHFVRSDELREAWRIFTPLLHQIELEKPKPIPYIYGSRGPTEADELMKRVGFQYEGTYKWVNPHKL

O=C(N/N=C/c1cc(Br)ccc1O)c1ccccc1Cl
EC50 [1]: > 160 µM (inactive) | IC50 (Aminopeptidase N): 8.06 µM (active) | EC50 (cells [2]): 103 µM (active) | EC50 [3]: > 38 µM (not active) | EC50 (cells [4]): > 350 µM (not active) | CC50 [5]: 2.16 µM (active) | CC50 [6]: 8.07 µM (active) | CC50 [7]: 6.98 µM (active) | AC50 (HEK293): 18.9 µM (active)

Cc1ccc(C2CC2C(=O)NN=C(S)Nc2ccc(Cl)cc2)cc1 (stereo not given)
IC50 [8]: > 66 µM (inactive) | IC50 [9]: > 66 µM (inactive)

O=C(/C=C/Nc1cccc(C(F)(F)F)c1)C(F)(F)F
AC50 (HEK293): > 350 µM (inactive)

O=C(CCS(=O)(=O)c1ccccc1)Nc1nccs1
AC50 (HEK293): 48.6 µM (active)

COc1ccccc1N1CCN(C(=O)CCC(=O)N2CCN(c3ccc(F)cc3)CC2)CC1
AC50 (HEK293): 186 µM (active)

Cc1ccc(SC(=O)c2c(C)noc2-c2cc(C)on2)cc1
AC50 [10]: 6.38 µM (active) | EC50 (Protein RecA): 8.74 µM (active) | IC50 [8]: > 66 µM (inactive) | IC50 [9]: > 66 µM (inactive)

CCn1c(N)c(C(=O)NC2CCCCC2)sc1=S
IC50 [8]: > 66 µM (inactive) | IC50 [9]: > 66 µM (inactive)

CCN1CCCC1CNC(=O)c1ccc2c(c1)NC(=O)/C(=C\c1ccc(C)cc1)S2 (stereo not given)
EC50 [11]: > 120 µM (not active) | EC50 [12]: 16 µM (active) | EC50 [13]: > 120 µM (not active) | IC50 [14]: > 80 µM (inactive) | AC50 [15]: 18.9 µM (active)

Oc1ccc(/C=N/NC(=S)Nc2cccnc2)cc1
IC50 (Large T antigen): 19.4 µM (active) | IC50 [8]: > 66 µM (inactive) | IC50 [9]: > 66 µM (inactive)

Cc1ccc(S(=O)(=O)Nc2cccc3c2O[C@@H](CN(C)Cc2ccc(C(=O)Nc4ccccc4N)cc2)[C@@H](C)CN([C@@H](C)CO)C3=O)cc1
AC50 [16]: 2.17 µM (active)

COc1ccc(NC(=O)Nc2cccc3c2O[C@H](CN(C)Cc2ccc(C(=O)Nc4ccccc4N)cc2)[C@H](C)CN([C@@H](C)CO)C3=O)cc1
AC50 [16]: 5.98 µM (active)

COc1ccc(NC(=O)Nc2ccc3c(c2)CC(=O)N([C@H](C)CO)C[C@@H](C)[C@@H](CN(C)Cc2ccc(-c4ccccc4)cc2)O3)cc1
AC50 [16]: 3.14 µM (active)

Cc1noc(C)c1NC(=O)Nc1cccc2c1O[C@H](CN(C)Cc1ccc(C(F)(F)F)cc1)[C@@H](C)CN([C@H](C)CO)C2=O
AC50 [16]: 10.4 µM (active)

COc1ccc(S(=O)(=O)Nc2ccc3c(c2)CC(=O)N([C@H](C)CO)C[C@@H](C)[C@@H](CN(C)S(=O)(=O)c2ccc(Cl)cc2)O3)cc1
AC50 [16]: 1.97 µM (active)

C(=N\Nc1nc2ccccc2[nH]1)/c1cccc2nccnc12
EC50 [11]: 18.5 µM (active) | EC50 (cells [2]): > 350 µM (not active) | EC50 [12]: 9.69 µM (active) | EC50 [13]: 5.54 µM (active) | EC50 (cells [4]): > 350 µM (not active) | AC50 (HEK293): 105 µM (active)

NC(=S)N/N=C/c1c(O)ccc2ccccc12
EC50 [11]: 24.5 µM (active) | EC50 [12]: 22.8 µM (active) | EC50 [13]: 11.6 µM (active) | AC50 (INS1): 1.09 µM (active) | IC50 [8]: > 66 µM (inactive) | IC50 [9]: > 66 µM (inactive)
